Test results from patent US9783575B2, “Methyl degron peptide and methods of controlling protein lifespan” (Seoul National University (SNU) R&D Foundation, priority 2012, dated 2017).

Tests used:
EZH2 [1] = target: T1, EZH2 (Homo sapiens, UniProt Q15910); assay: In vitro methyltransferase (HMTase) assay with mass spectrometry; format: biochemical; settings: 100 μM synthetic peptide, GST-EZH2, LC-MS (FIG. 4)
T1 construct: GST
Method: Small quantities (100 μM) of synthetic peptides (RORα WT) were used as substrates in the HMTase assay with EZH2 enzyme; the reaction was stopped by 10% TCA precipitation for 10 min at 4° C. After removing the precipitates by centrifugation, the supernatants were retrieved and methylated peptides in the supernatants were analyzed by LC-MS. The eluted peptides were separated on a Luna column (C18 PepMap 100, 150×1 mm 5 micron) with a linear gradient (A: 100% H2O, 0.1% formic acid, B: 100% ACN, 0.1% formic acid) at a flow rate of […]. Typically, 2 μL of sample was injected. Mass spectrometry was performed on a linear ion trap mass spectrometer (LCQ DECA XP, Thermo Finningan) coupled to a nano-LC system (NANOSPACE SI-2, Shiseido). The MS method consisted of a cycle combining one full MS scan (Mass range: 160-2000 m/z).
The association of EZH2 with RORα at endogenous levels was confirmed by co-immunoprecipitation analysis (FIG. 3). To assess whether RORα is methylated by EZH2 and to determine the methylation status of RORα, peptides bearing amino acids 31-40 of RORα (LNQESARKSE) were in vitro methylated by EZH2 and analyzed by mass spectrometry. […]

EZH2 [2] = assay: Immunoblot of EZH2 and RORα protein levels with DZNep; format: cell-based; settings: MCF7 cells, DZNep 1 μM, 24 hr, immunoblot (FIG. 19)
Excerpt: (§1) In order to determine whether the ubiquitin-proteasome pathway is responsible for RORα degradation and to further examine whether the introduction of EZH2 augments RORα ubiquitination by allowing increased RORα methylation, we performed an RORα ubiquitination assay with EZH2 in the presence of a 26S proteasome inhibitor, MG132. […] To further examine whether K38 methylation directly affects RORα ubiquitination, we performed a ubiquitination assay for RORα WT and RORα K38A in the presence of MG132. Indeed, RORα K38A mutation led to a marked reduction in RORα ubiquitination compared to RORα WT (FIG. 18). Next, we examined whether an EZH2 small molecule inhibitor, exemplified by DZNep, rescues the EZH2-mediated degradation of RORα.

RORα ubiquitination = RORα ubiquitination assay with DZNep; format: cell-based; settings: HEK-293T cells, DZNep 1 μM, 24 hr (FIG. 20)
Method: Cells were transfected with combinations of plasmids including HisMax-ubiquitin. After incubation for 48 hrs, cells were treated with MG132, lysed in buffer A (6 M guanidinium-HCl, 0.1 M Na2HPO4/NaH2PO4, 0.01 M Tris-Cl [pH 8.0], 5 mM imidazole, and 10 mM β-mercaptoethanol), and incubated with Ni^2+-NTA beads (Qiagen) for 4 hrs at room temperature. The beads were sequentially washed with buffer A, buffer B (8 M urea, 0.1 M Na2PO4/NaH2PO4, 0.01 M Tris-Cl [pH 8.0], and 10 mM β-mercaptoethanol), and buffer C (8 M urea, 0.1 M Na2PO4/NaH2PO4, 0.01 M Tris-Cl [pH 6.3], and 10 mM β-mercaptoethanol). Bound proteins were eluted with buffer D (200 mM imidazole, 0.15 M Tris-Cl [pH 6.7], 30% glycerol, 0.72 M β-mercaptoethanol, and 5% SDS), and subject to immunoblot analysis.
as §1, with “Next, we examined whether an EZH2 small molecule inhibitor, exemplified by DZNep, rescues the EZH2-mediated degradation of RORα.” left out

MCF7 breast cancer cells = assay: Cell transformation assay (anchorage-independent growth in soft agar); format: cell-based; set-up: dose or concentration left out as unconfirmed; settings: 3 weeks (FIG. 60)
Method: Representative images are shown for each group. Immunoblot analysis was performed to detect each protein level. […]

T1 sequence (Q15910 whole entry, species assumed): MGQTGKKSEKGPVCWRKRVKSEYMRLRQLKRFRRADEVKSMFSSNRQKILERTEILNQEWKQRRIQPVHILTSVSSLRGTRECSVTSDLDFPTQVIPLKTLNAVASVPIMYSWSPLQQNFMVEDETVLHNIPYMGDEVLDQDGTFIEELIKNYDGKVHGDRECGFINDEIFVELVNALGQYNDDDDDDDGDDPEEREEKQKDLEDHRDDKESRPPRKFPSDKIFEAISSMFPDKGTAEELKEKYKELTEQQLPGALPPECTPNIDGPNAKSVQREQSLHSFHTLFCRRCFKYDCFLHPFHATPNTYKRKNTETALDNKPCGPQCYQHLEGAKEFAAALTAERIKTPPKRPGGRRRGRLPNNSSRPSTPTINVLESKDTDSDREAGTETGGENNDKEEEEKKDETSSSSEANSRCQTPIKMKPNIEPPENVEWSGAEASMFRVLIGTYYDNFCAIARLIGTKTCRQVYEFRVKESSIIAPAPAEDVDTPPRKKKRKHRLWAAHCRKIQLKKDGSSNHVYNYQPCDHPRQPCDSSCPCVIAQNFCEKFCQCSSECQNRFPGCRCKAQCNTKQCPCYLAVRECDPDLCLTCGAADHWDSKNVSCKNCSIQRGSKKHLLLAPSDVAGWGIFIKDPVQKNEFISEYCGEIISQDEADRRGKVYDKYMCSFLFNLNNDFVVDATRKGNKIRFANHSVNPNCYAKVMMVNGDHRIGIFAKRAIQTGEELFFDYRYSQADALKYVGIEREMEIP

For “LNQESARKSE [RORα wild-type (WT) peptide, peptide bearing amino acids 31-40 of RORα]”, the “methylation of peptide by EZH2” value (EZH2 [1]) was “addition of one methyl group to the K38 site”.

`Nc1nccc2c1ncn2C1C=C(CO)C(O)C1O` (centres unmarked) [DZNep] was tested, and the EZH2 protein levels (EZH2 [2]) was “reduction of EZH2 protein levels”, the RORα protein levels (EZH2 [2]) was “increases in RORα protein levels” and the RORα ubiquitination levels (RORα ubiquitination) was “decreased”. For the same compound, the “cellular transformation (colony formation in soft agar)” value (MCF7 breast cancer cells) was “inhibitory effect on cellular transformation”.
